Experimental data as given in patent US20130046003A1, “PHARMACEUTICAL COMPOSITIONS COMPRISING 4-BROMO-N-(IMIDAZOLIDIN-2-YLIDENE)-1H-BENZIMIDAZOL-5-AMINE FOR TREATING RETINAL DISEASES” (priority 2011, published 2013).

How the values were obtained:
[1] = test system: retina damage caused by blue light; details: rats, 1 mg/kg IP one hour before 4 hours blue light exposure (6100-6500 lux); OCT at 7 days post exposure; versus saline
Protocol: Drugs were administered via intraperitoneal injection (IP) at a dose of 1 mg/kg one hour before blue light exposure.
Twenty 4-month old male Sprague-Dawley rats (body weight 470-550 g) were used in this study. The animals were exposed to room light on a 12 hour lighV12 hour dark cycle before the experiment. All animals were dark adapted overnight (16-20 hours) before blue light exposure. Under the intensity of 6100-6500 lux, rats were exposed to blue light for 4 hours. After the blue light, rats were placed in the dark for another 3 days before returning to normal 12 hour light/12 hour dark. Ocular Coherence Tomography (OCT) measurement was performed at 7 days post blue light exposure.

[2] = normal DB rabbits, intravenous route, 10-30 minutes post-dose
Protocol: Rabbits were dosed with 4-bromo-N-(imidazolidin-2-ylidene)-1H-benzimidazol-5-amine through intravenous route. Spatial sweep visual evoked potential (sVEP) acuity was assessed with PowerDiva software version 1.8. Recordings were made bilaterally in conscious animals.

[3] = test system: alpha 2-adrenergic receptor; details: known from prior art; all three alpha-2 receptor subtypes; cited from earlier work
[4] = rats, after an oral dose of brimonidine tartrate; cited from earlier work

SMILES	protection of the retina from damage caused by blue light (retinal thickness measured by OCT) [1]	visual acuity (sVEP acuity) [2]	alpha 2-adrenergic receptor agonist activity [3]	amount found in urine [4]
Brc1c(N=C2NCCN2)ccc2nccnc12 [brimonidine, (5-bromo-quinoxalin-6-yl)-imidazolidin-2-ylidene-amine, reference compound]	significantly reduced and protected the retina from the damage caused by blue light	–	–	–
Brc1c(N=C2NCCN2)ccc2[nH]cnc12 [4-bromo-N-(imidazolidin-2-ylidene)-1H-benzimidazol-5-amine]	–	enhanced visual acuity	potent alpha 2-adrenergic receptor pan agonist, activating all three alpha-2 receptor subtypes	trace amounts
